Reference: US7879547B2, “Method of detecting the presence of asthma or allergies in a patient” (Children's Hospital Medical Center, priority 2002, dated 2011)

What was measured:
[1] = tested on: lung arginase; assay: Arginase activity in lung lysates incubated with NOHA in vitro (blood urea nitrogen reagent); assay type: biochemical, mice
Method: (§1) FIGS. 11A and 11B are line graphs showing the results of treating lung lysates with N(omega)-hydroxy-L-arginine (NOHA). FIG. 11A illustrates in vitro treatment of lung lysates from […] with NOHA. FIG. 11B illustrates in vitro treatment of transgenic mice that overexpress interleukin 4 with NOHA.
(§2) Arginase activity was measured using the blood urea nitrogen reagent (Sigma Chemical Company, St. Louis, Mo.) according to established techniques as exemplified in Wei, L. H., et al., Proc Natl Acad Sci USA 98, 9260-4. (2001); Li, H. et al. Am J Physiol Regul Integr Comp Physiol 282, R64-R69. (2002); Wei, L. H. et al., Am J Physiol Cell Physiol 279, C248-56. (2000). To measure levels of putrescine following acid extraction, ion-pair reverse phase high performance liquid chromatography was performed.
(§3) IL-4 lung transgenic mice, which have markedly elevated level of lung arginase mRNA and activity, were used to examine the effect of NOHA in vitro and in vivo (FIG. 11). In FIG. 11A, lung lysates from IL-4 lung transgenic mice were incubated with NOHA and the arginase activity at different doses of NOHA (x axis) and arginine is shown. In FIG. 11B, IL-4 transgenic mice were treated with intratracheal NOHA (two doses: 10 and 100 mcg) and the arginase activity in the lungs was measured 4 hrs later.

[2] = tested on: lung arginase; assay: Lung arginase activity after intratracheal NOHA in IL-4 lung transgenic mice; assay type: in vivo; conditions: IL-4 transgenic mice, intratracheal NOHA 10 and 100 mcg, measured 4 hrs later, FIG. 11B
Method: as §1, §2, §3

[3] = tested on: IL4/IL5 lung transgenic mice; assay: Airway hyperresponsiveness to methacholine (Penh, barometric plethysmography) after intratracheal NOHA; assay type: in vivo; conditions: intratracheal NOHA 100 mcg, Penh recorded 4 hrs later, Example 20, FIG. 12
Method: FIG. 12 is a line graph showing the results of airway hyperreactivity measurements (recorded as Penh) in asthmatic mice (IL4/IL5 bitransgenic lung mice) treated with intratracheal NOHA. Airway reactivity to methacholine was assessed in conscious, unrestrained mice by barometric plethysmography, using apparatus and software supplied by Buxco (Troy, N.Y.). This system yields a dimensionless parameter known as enhanced pause (Penh), reflecting changes in wave-form of the pressure signal from the plethysmography chamber combined with a timing comparison of early and late expiration, which can be used to empirically monitor airway function. […]

[4] = tested on: asthma; assay: Treatment of individual suffering from asthma with anti-arginase compound (inhalation); assay type: in vivo; conditions: inhalation of therapeutically effective amount
From the text: An individual suffering from asthma is identified. The individual is provided with a therapeutically effective amount of N(omega)-hydroxy-L-arginine to reduce the indications of asthma.

N=C(NO)NCCC[C@H](N)C(=O)O [NOHA, N(omega)-hydroxy-L-arginine]
arginase activity in lung lysates ([1]; lung lysates from IL-4 lung transgenic mice incubated with different doses of NOHA and arginine, FIG. 11A): effective to reduce arginase activity in lung lysates | arginase activity in the asthmatic lung ([1]; summary statement referring to Example 15): blocks arginase activity in the asthmatic lung | arginase activity in the lungs [2]: effective to reduce arginase activity | development of allergen-induced airway hyperresponsiveness (Penh) [3]: blocks the development of allergen-induced airway hyperesponsiveness | asthma symptoms [4]: asthma symptoms are reduced
